# In ChEMBL document CHEMBL1201862, “PubChem BioAssay data set” (2004):
#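 1) Cells in 96-well plates. 2) Compound, 48 h, 5 concentrations. 3) Linear interpolation between surrounding doses. 4) Unreached endpoint = highest concentration. The concentration for 50% growth inhibition is given as GI50.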 Active and inactive are the calls of the source. Rule as the data show it: active = GI50 up to about 1.1 µM and inactive = higher.
# Columns and labels:
# Experiment in all cases: DTP human tumour cell line panel, 48 h
# OVCAR-3 = system: OVCAR-3
# UACC-257 = system: UACC-257
# SK-MEL-2 = system: SK-MEL-2
# OVCAR-4 = system: OVCAR-4
# COLO 205 = system: COLO 205
# CCRF-CEM = system: CCRF-CEM
# K562 = system: K562
# OVCAR-5 = system: OVCAR-5
# SN12C = system: SN12C
# RPMI-8226 = system: RPMI-8226
# KM12 = system: KM12
# SW-620 = system: SW-620
# HCT-116 = system: HCT-116
# SF-539 = system: SF-539
# SR = system: SR
# NCI-H226 = system: NCI-H226
# HOP-92 = system: HOP-92
# NCI/ADR-RES = system: NCI/ADR-RES
# MCF7 = system: MCF7
SMILES,GI50 (OVCAR-3),GI50 (UACC-257),GI50 (SK-MEL-2),GI50 (OVCAR-4),GI50 (COLO 205),GI50 (CCRF-CEM),GI50 (K562),GI50 (OVCAR-5),GI50 (SN12C),GI50 (RPMI-8226),GI50 (KM12),GI50 (SW-620),GI50 (HCT-116),GI50 (SF-539),GI50 (SR),GI50 (NCI-H226),GI50 (HOP-92),GI50 (NCI/ADR-RES),GI50 (MCF7)
O=C(CCc1nnc(S)[nH]1)Nc1ccc(Cl)c(Cl)c1,40.6 µM (inactive),34.8 µM (inactive),6.18 µM (inactive),58.2 µM (inactive),> 100 µM (inactive),80.4 µM (inactive),9.1 µM (inactive),33.8 µM (inactive),> 100 µM (inactive),> 100 µM (inactive),21.9 µM (inactive),41.3 µM (inactive),47 µM (inactive),62.5 µM (inactive),51.2 µM (inactive),> 100 µM (inactive),53.2 µM (inactive),–,–
O=C1NC(=O)C(C(=O)C(=O)Nc2ccc(Br)cc2)C(=O)N1,> 100 µM (inactive),> 100 µM (inactive),–,> 100 µM (inactive),> 100 µM (inactive),> 100 µM (inactive),> 100 µM (inactive),–,> 100 µM (inactive),> 100 µM (inactive),–,> 100 µM (inactive),> 100 µM (inactive),> 100 µM (inactive),> 100 µM (inactive),> 100 µM (inactive),> 100 µM (inactive),–,–
CC[n+]1c(/C=C/c2ccc(N(CCCl)CCCl)cc2)ccc2cc(Br)ccc21,0.587 µM (active),1.11 µM (active),0.382 µM (active),1.01 µM (active),69.7 µM (inactive),0.345 µM (active),0.361 µM (active),3.99 µM (inactive),2.48 µM (inactive),2.53 µM (inactive),1.68 µM (inactive),1.93 µM (inactive),131 µM (inactive),1.55 µM (inactive),1.46 µM (inactive),1.82 µM (inactive),1.06 µM (active),–,–
C=CC[P@]1(=O)O[C@H](c2ccccc2)C(C)N1C(C)C (stereo partly specified),> 100 µM (inactive),> 100 µM (inactive),> 100 µM (inactive),–,> 100 µM (inactive),> 100 µM (inactive),> 100 µM (inactive),> 100 µM (inactive),> 100 µM (inactive),> 100 µM (inactive),> 100 µM (inactive),> 100 µM (inactive),> 100 µM (inactive),> 100 µM (inactive),> 100 µM (inactive),> 100 µM (inactive),> 100 µM (inactive),–,–
COc1ccc(OC)c(C#Cc2ccc(OC)c(C(=O)NCCc3ccc(F)cc3)c2)c1,–,> 100 µM (inactive),5.05 µM (inactive),6.32 µM (inactive),5.22 µM (inactive),–,2.39 µM (inactive),> 100 µM (inactive),–,3.32 µM (inactive),4.13 µM (inactive),4.02 µM (inactive),–,–,0.783 µM (active),–,–,7.8 µM (inactive),6.5 µM (inactive)
